{
  "source": "patent US20260273018A1",
  "about": "“PHARMACEUTICAL COMPOSITION CONTAINING SPECIFIC SELF-ASSEMBLING PEPTIDE RADA16 FOR TREATING OR PREVENTING LOWER GASTROINTESTINAL DISEASES SUCH AS INFLAMMATORY BOWEL DISEASE” (3-D Matrix, Ltd., priority 2021, published 2026)",
  "key": {"[1]": {"test_system": "DSS-induced ulcerative colitis model", "test": "Transanal administration experiment on DSS-induced ulcerative colitis model mice (DAI, body weight, large intestine length, general condition)", "format": "in vivo", "description": "A mouse was made to drink an aqueous solution of 2.5 w/v % dextran sulfate sodium, and the efficacy of a specific peptide having the amino acid sequence indicated by SEQ ID NO 1 on the induced ulcerative colitis model is retrieved by Disease Activity Index. Similarly, Mucosta (registered trademark) and Selbex (registered trademark), which are therapeutic agents for duodenal ulcers, were administered alone or in combination with a peptide having the amino acid sequence indicated by SEQ ID NO 1, and Pentasa (registered trademark) and Rectabul (registered trademark), which are therapeutic agents for ulcerative colitis, were administered alone to compare and study the efficacy. Furthermore, the plasma and removed large intestine collected on the final day of the experiment were shipped to a test contractor. • Dextran sulfate sodium aqueous solution drink period (preparation of dextran sulfate sodium-induced ulcerative colitis model): • Nov. 16, 2019 to Nov. 25, 2019 • Administration period: Nov. 22, 2019 to Nov. 24, 2019 • Disease Activity Index (DAI: Evaluation of body weight, properties, and occult blood): • November 16, November 22, and Nov. 25, 2019 • Blood collected: Nov. 25, 2019 • Large intestine removed and length measured: • Nov. 25, 2019 • Experiment end date: Nov. 25, 2019\n• Species: Mouse (SPF) • Strain: BALB/cAnNCrlCrlj • Source: Charles River Laboratories Japan (Atsugi Breeding Center) • Reason for selection of the test system: The mouse strain is widely used for toxicity and drug efficacy tests. • Sex and order (purchase) count: Male: 60 • Age at purchase: 9 weeks • Quarantine and habituation: Quarantine was carried out for six days from the date of animal purchase. During the quarantine period, the general condition was observed daily and body weight was measured on the 1st day (purchase date), 3rd day, and 7th day (quarantine end date). In addition, the habituation period was from the date of animal purchase to the day before the start of drinking the DSS aqueous solution, the general condition was also observed once a day after the quarantine period, and body weight was measured on a grouping day. • Age at the start of test substance administration: 11 weeks\n• Administration method: Performed under anesthesia by inhalation of Japanese pharmacopeia isoflurane (Mylan Inc., hereinafter abbreviated as isoflurane). • If there is a clot of feces in the rectum, the animal was massaged, and the feces were removed as much as possible. • The administration solution was aspirated into a 1 mL polypropylene syringe cylinder (sterilized disposable product), inserted through the anus part using a mouse sonde (about 1 cm from the tip), and slowly administered transanally. […] Then, it was slowly pulled out and liquid that leaked from the anus part was wiped off. It should be noted that mixing was performed by lightly inverting by hand so that the test substance administration solution and the Rectabul administration solution would not have large bubbles as much as possible and so that the other comparative control substance administration solution would not foam up, and then each solution was aspirated into the syringe cylinder. • Amount of administration liquid: 0.7 mL • Reason for selection: The method of administration to mice is common and appropriate.\n• Animal subjects: All test animals after grouping (excluding non-treatment group) • Model production period: Day 1-10 • Model production method: On the day that drinking of the DSS aqueous started (between 13:00 and 14:00), the water in the glass or polycarbonate water dispenser installed in the cage was changed to a DSS 2.5 w/v % aqueous solution, and the solution was freely ingested. […]"}, "[2]": {"test_system": "DSS-induced ulcerative colitis model, large intestine tissue", "test": "Histopathological evaluation of colon HE-stained specimens (Histological Colitis Score)", "format": "in vivo, Mouse", "conditions": "compared to the negative control; scores only in the FIGURE", "description": "A histopathological evaluation of the colon HE-stained specimens prepared in example 1 was performed. • 1. […] Histopathological evaluation • Blind evaluation of a pathology score was carried out in accordance with the scoring below for two pieces of the upper and lower parts of the large intestine for each specimen (36 pieces in total). Each score of (1), (2), (3) is multiplied by (4), and the total of these is defined as a “Histological Colitis Score.”^1) It should be noted that the lower part of the large intestine is located on the […], and • the upper part of the large intestine is located to the right thereof.\n• 1) Dieleman LA., et al. Chronic experimental colitis induced by dextran sulfate sodium (DSS) is characterized by Th1 and Th2 cytokines. Clin Exp Immunol. 1998."}, "[3]": {"conditions": "Day 10, transanal 0.7 mL/head on Days 7-9"}, "[4]": {"conditions": "observation period, considered due to progress of DSS colitis"}},
  "data": [
    {"sequence": "RADARADARADARADA", "values": [
      {"measurement": "average DAI score, Day 7", "setting": "[1]; Day 7 of DSS 2.5 w/v % drinking (first treatment day), group average, 0.7 mL/head transanal once a day on Days 7, 8, 9", "result": 2.8},
      {"measurement": "cases scoring 1 \"+\" for fecal occult blood (visual)", "setting": "[1]; Day 10", "result": "one case"},
      {"measurement": "length of the large intestine, end part of the ileum to just before the rectum (average)", "setting": "[1]; [3]", "result": 45.52, "unit": "mm"},
      {"measurement": "length of the large intestine, end part of the ileum to the anus part (average)", "setting": "[1]; [3]", "result": 75.71, "unit": "mm"},
      {"measurement": "average DAI score, Day 10", "setting": "[1]; Day 10 of DSS drinking, after transanal 0.7 mL/head on Days 7, 8, 9, group average", "result": 2.8},
      {"measurement": "death", "setting": "[1]; found dead on Day 10, cause considered progression of DSS-induced ulcerative colitis", "result": "a death was observed"},
      {"measurement": "general condition: anal bleeding (cases)", "setting": "[1]; observation period", "result": "one case"},
      {"measurement": "general condition: black stool (cases)", "setting": "[1]; observation period", "result": "one case"},
      {"measurement": "general condition: perianal hair stains (pale red) (cases)", "setting": "[1]; observation period", "result": "one case"},
      {"measurement": "general condition: piloerection (cases)", "setting": "[1]; observation period", "result": "one case"},
      {"measurement": "general condition: irregular respiration (cases)", "setting": "[1]; [4]", "result": "one to three cases"},
      {"measurement": "general condition: small amount of defecation (cases of 5 animals)", "setting": "[1]; [4]", "result": "one to three cases"},
      {"measurement": "DAI score on Day 10 compared to Day 7", "setting": "[1]; result in words, control group increased", "result": "did not increase compared to Day 7"},
      {"measurement": "body weight loss on Day 10 compared to Day 7", "setting": "[1]; result in words, control group lost further weight", "result": "no further body weight loss was observed compared to Day 7"},
      {"measurement": "histological score: suppression of intestinal tissue inflammation", "setting": "[2]", "result": "had an effect of suppressing intestinal tissue inflammation compared to the negative control"}
    ]}
  ]
}
